# Data as given in patent US9676754B2, “Triazolone compounds and uses thereof” (Inception 2, Inc., priority 2012, dated 2017).
# Target: T1, Human PPARα (Homo sapiens, UniProt Q07869)
# T1 construct: host or cells: proprietary non-human mammalian cells
# T1 sequence (Q07869 1-468): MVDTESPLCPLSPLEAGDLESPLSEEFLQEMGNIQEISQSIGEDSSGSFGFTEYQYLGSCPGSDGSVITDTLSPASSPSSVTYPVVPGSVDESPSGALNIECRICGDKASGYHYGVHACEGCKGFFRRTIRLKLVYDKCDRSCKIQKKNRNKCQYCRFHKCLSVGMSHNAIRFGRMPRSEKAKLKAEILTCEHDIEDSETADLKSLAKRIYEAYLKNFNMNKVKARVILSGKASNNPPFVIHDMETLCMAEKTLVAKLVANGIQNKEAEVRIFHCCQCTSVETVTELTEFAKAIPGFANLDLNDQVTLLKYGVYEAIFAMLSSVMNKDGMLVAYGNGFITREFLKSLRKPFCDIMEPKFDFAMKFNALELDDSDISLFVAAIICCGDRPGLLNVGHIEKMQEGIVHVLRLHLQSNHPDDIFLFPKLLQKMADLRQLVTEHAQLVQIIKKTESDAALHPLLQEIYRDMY
# Experiment: Human PPARα Reporter Assay (luciferase)
# Format: cell-based
# Conditions: antagonist activity, luciferase reporter cells, overnight incubation; read-out: Human PPARα Reporter Assay-Luciferase IC50
# Procedure: Human PPARα Reporter Assay
# The screening of test compounds for agonist or antagonist activities against human PPARα receptors was performed using a commercial kit, Human PPARα Reporter Assay System (Indigo Biosciences, Cat. #IB00111).
# This nuclear receptor assay system utilizes proprietary non-human mammalian cells engineered to provide constitutive, high-level expression of Human PPARα. Because these cells incorporate a PPARα-responsive luciferase reporter gene, quantifying expressed luciferase activity provides a sensitive surrogate measure of PPARα activity in the treated cells. The primary application of this reporter assay system is in the screening of test samples to quantify any functional activity, either agonist or antagonist, that they may exert against human PPARα. […] Briefly, the reporter cells are dispensed into wells of the assay plate and then immediately dosed with test compounds. Following an overnight incubation, the treatment media are discarded and Luciferase Detection Reagent (LDR) is added. The intensity of light emission from the ensuing luciferase reaction provides a sensitive measure that is directly proportional to the relative level of PPARα activation in the reporter cells.
row,Compound,IC50 [nM]
1,"CCn1c(CCCc2cccc(-c3ccc(NS(=O)(=O)c4ccccc4)cn3)c2)nn(Cc2ccc(C(C)(C)C)cc2)c1=O [Example 12, N-(6-(3-(3-(1-(4-(tert-Butyl)benzyl)-4-ethyl-5-oxo-4,5-dihydro-1H-1,2,4-triazol-3-yl)propyl)phenyl)pyridin-3-yl)benzenesulfonamide]",302
2,"CCn1c(CCCc2cccc(-c3ccc(OCC4CC4)c(CC(=O)O)c3)c2)nn(Cc2ccc(C(C)(C)C)cc2)c1=O [Example 16, 2-(3′-(3-(1-(4-(tert-Butyl)benzyl)-4-ethyl-5-oxo-4,5-dihydro-1H-1,2,4-triazol-3-yl)propyl)-4-(cyclopropylmethoxy)-[1,1′-biphenyl]-3-yl)acetic acid]",141
3,"CCn1c(CCCc2cccc(-c3cccc(C(=O)O)c3)c2)nn(Cc2ccc(C(C)(C)C)cc2)c1=O [Example 3, 3′-(3-(1-(4-(tert-Butyl)benzyl)-4-ethyl-5-oxo-4,5-dihydro-1H-1,2,4-triazol-3-yl)propyl)-[1,1′-biphenyl]-3-carboxylic acid]",1330
4,"CCCOc1ccc(-c2cccc(CCCc3nn(Cc4ccc(C(C)(C)C)cc4)c(=O)n3CC)c2)cc1C(=O)O [Example 19, 3′-(3-(1-(4-(tert-Butyl)benzyl)-4-ethyl-5-oxo-4,5-dihydro-1H-1,2,4-triazol-3-yl)propyl)-4-propoxy-[1,1′-biphenyl]-3-carboxylic acid]",119
5,"CCOc1ccc(CC(=O)O)cc1-c1cccc(CCCc2nn(Cc3ccc(C(C)(C)C)cc3)c(=O)n2CC)c1 [Example 18, 2-(3′-(3-(1-(4-(tert-Butyl)benzyl)-4-ethyl-5-oxo-4,5-dihydro-1H-1,2,4-triazol-3-yl)propyl)-6-ethoxy-[1,1′-biphenyl]-3-yl)acetic acid]",750
6,"CCn1c(CCCc2cccc(-c3cccc(-c4nnn[nH]4)c3)c2)nn(Cc2ccc(C(C)(C)C)cc2)c1=O [Example 25, 3-(3-(3′-(1H-Tetrazol-5-yl)-[1,1′-biphenyl]-3-yl)propyl)-1-(4-(tert-butyl)benzyl)-4-ethyl-1H-1,2,4-triazol-5(4H)-one]",2290
7,"CCOc1ccc(-c2cccc(C(F)(F)CCc3nn(Cc4ccc(C(C)(C)C)cc4)c(=O)n3CC)c2)cc1CC(=O)O [Example 22, 2-(3′-(3-(1-(4-(tert-Butyl)benzyl)-4-ethyl-5-oxo-4,5-dihydro-1H-1,2,4-triazol-3-yl)-1,1-difluoropropyl)-4-ethoxy-[1,1′-biphenyl]-3-yl)acetic acid]",64
8,"CCn1c(CCCc2cccc(-c3ccc(OC)c(C(=O)O)c3)c2)nn(Cc2ccc(C(C)(C)C)cc2)c1=O [Example 9, 3′-(3-(1-(4-(tert-Butyl)benzyl)-4-ethyl-5-oxo-4,5-dihydro-1H-1,2,4-triazol-3-yl)propyl)-4-methoxy-[1,1′-biphenyl]-3-carboxylic acid]",548
9,"CCn1c(CCC(F)(F)c2cccc(-c3ccc(NS(=O)(=O)c4ccccc4)cn3)c2)nn(Cc2ccc(C(C)(C)C)cc2)c1=O [Example 23, N-(6-(3-(3-(1-(4-(tert-Butyl)benzyl)-4-ethyl-5-oxo-4,5-dihydro-1H-1,2,4-triazol-3-yl)-1,1-difluoropropyl)phenyl)pyridin-3-yl)benzenesulfonamide]",659
10,"CCn1c(CCCc2cccc(-c3ccc(F)c(CC(=O)O)c3)c2)nn(Cc2ccc(C(C)(C)C)cc2)c1=O [Example 17, 2-(3′-(3-(1-(4-(tert-Butyl)benzyl)-4-ethyl-5-oxo-4,5-dihydro-1H-1,2,4-triazol-3-yl)propyl)-4-fluoro-[1,1′-biphenyl]-3-yl)acetic acid]",83
11,"CCn1c(CCCc2cccc(-c3ccc(C4(C(=O)O)CC4)cc3)c2)nn(Cc2ccc(C(C)(C)C)cc2)c1=O [Example 8, 1-(3′-(3-(1-(4-(tert-Butyl)benzyl)-4-ethyl-5-oxo-4,5-dihydro-1H-1,2,4-triazol-3-yl)propyl)-[1,1′-biphenyl]-4-yl)cyclopropanecarboxylic acid]",487
12,"CCOc1ccc(-c2cc(CCCc3nn(Cc4ccc(C(C)(C)C)cc4)c(=O)n3CC)ncn2)cc1CC(=O)O [Example 27, 2-(5-(6-(3-(1-(4-(tert-Butyl)benzyl)-4-ethyl-5-oxo-4,5-dihydro-1H-1,2,4-triazol-3-yl)propyl)pyrimidin-4-yl)-2-ethoxyphenyl)acetic acid]",3430
13,"CCn1c(CCCc2cccc(-c3ccc(CC(=O)O)cc3)c2)nn(Cc2ccc(C(C)(C)C)cc2)c1=O [Example 2, 2-(3′-(3-(1-(4-(tert-Butyl)benzyl)-4-ethyl-5-oxo-4,5-dihydro-1H-1,2,4-triazol-3-yl)propyl)-[1,1′-biphenyl]-4-yl)acetic acid]",324
14,"CCCOc1ccc(-c2cccc(CCCc3nn(Cc4ccc(C(C)(C)C)cc4)c(=O)n3CC)c2)cc1CC(=O)O [Example 11, 2-(3′-(3-(1-(4-(tert-Butyl)benzyl)-4-ethyl-5-oxo-4,5-dihydro-1H-1,2,4-triazol-3-yl)propyl)-4-propoxy-[1,1′-biphenyl]-3-yl)acetic acid]",48
15,"CCn1c(CCCc2cccc(-c3ccc(C(=O)O)cc3)c2)nn(Cc2ccc(C(C)(C)C)cc2)c1=O [Example 4, 3′-(3-(1-(4-(tert-Butyl)benzyl)-4-ethyl-5-oxo-4,5-dihydro-1H-1,2,4-triazol-3-yl)propyl)-[1,1′-biphenyl]-4-carboxylic acid]",110
16,"CCn1c(CCCc2cccc(-c3cccc(CC(=O)O)c3)c2)nn(Cc2ccc(C(C)(C)C)cc2)c1=O [Example 1, 2-(3′-(3-(1-(4-(tert-Butyl)benzyl)-4-ethyl-5-oxo-4,5-dihydro-1H-1,2,4-triazol-3-yl)propyl)-[1,1′-biphenyl]-3-yl)acetic acid]",346
17,"CCCOc1cc(-c2cccc(CCCc3nn(Cc4ccc(C(C)(C)C)cc4)c(=O)n3CC)c2)ccc1CC(=O)O [Example 30, (3′-(3-(1-(4-(tert-Butyl)benzyl)-4-ethyl-5-oxo-4,5-dihydro-1H-1,2,4-triazol-3-yl)propyl)-3-propoxy-[1,1′-biphenyl]-4-yl)acetic acid]",36
18,"CCOc1ccc(-c2nccc(CCCc3nn(Cc4ccc(C(C)(C)C)cc4)c(=O)n3CC)n2)cc1CC(=O)O [Example 26, 2-(5-(4-(3-(1-(4-(tert-Butyl)benzyl)-4-ethyl-5-oxo-4,5-dihydro-1H-1,2,4-triazol-3-yl)propyl)pyrimidin-2-yl)-2-ethoxyphenyl)acetic acid]",1240
19,"CCn1c(CCCc2cccc(-c3ccc(C)c(C4(C(=O)O)CC4)c3)c2)nn(Cc2ccc(C(C)(C)C)cc2)c1=O [Example 14, 1-(3′-(3-(1-(4-(tert-Butyl)benzyl)-4-ethyl-5-oxo-4,5-dihydro-1H-1,2,4-triazol-3-yl)propyl)-4-methyl-[1,1′-biphenyl]-3-yl)cyclopropanecarboxylic acid]",234
20,"CCn1c(CCCc2cccc(-c3ccc(OCc4ccccc4)c(CC(=O)O)c3)c2)nn(Cc2ccc(C(C)(C)C)cc2)c1=O [Example 15, 2-(4-(Benzyloxy)-3′-(3-(1-(4-(tert-butyl)benzyl)-4-ethyl-5-oxo-4,5-dihydro-1H-1,2,4-triazol-3-yl)propyl)-[1,1′-biphenyl]-3-yl)acetic acid]",122
21,"CCn1c(CCCc2cccc(-c3cccc(CNS(=O)(=O)c4ccccc4)c3)c2)nn(Cc2ccc(C(C)(C)C)cc2)c1=O [Example 20, N-((3′-(3-(1-(4-(tert-Butyl)benzyl)-4-ethyl-5-oxo-4,5-dihydro-1H-1,2,4-triazol-3-yl)propyl)-[1,1′-biphenyl]-3-yl)methyl)benzenesulfonamide]",896
22,"CCOc1ccc(-c2cccc(CCCc3nn(Cc4ccc(C(C)(C)C)cc4)c(=O)n3CC)c2)cc1C1(C(=O)O)CC1 [Example 5, 1-(3′-(3-(1-(4-(tert-Butyl)benzyl)-4-ethyl-5-oxo-4,5-dihydro-1H-1,2,4-triazol-3-yl)propyl)-4-ethoxy-[1,1′-biphenyl]-3-yl)cyclopropanecarboxylic acid]",137
23,"CCOc1cc(-c2cccc(CCCc3nn(Cc4ccc(C(C)(C)C)cc4)c(=O)n3CC)c2)ccc1CC(=O)O [Example 29, (3′-(3-(1-(4-(tert-Butyl)benzyl)-4-ethyl-5-oxo-4,5-dihydro-1H-1,2,4-triazol-3-yl)propyl)-3-ethoxy-[1,1′-biphenyl]-4-yl)acetic acid]",59
24,"CCn1c(CCCc2cccc(-c3ccc(CC(=O)O)c(OC)c3)c2)nn(Cc2ccc(C(C)(C)C)cc2)c1=O [Example 28, (3′-(3-(1-(4-(tert-Butyl)benzyl)-4-ethyl-5-oxo-4,5-dihydro-1H-1,2,4-triazol-3-yl)propyl)-3-methoxy-[1,1′-biphenyl]-4-yl)acetic acid]",140
25,"CCn1c(CCCc2cccc(-c3ccc(OC)c(CC(=O)O)c3)n2)nn(Cc2ccc(C(C)(C)C)cc2)c1=O [Example 24, 2-(5-(6-(3-(1-(4-(tert-Butyl)benzyl)-4-ethyl-5-oxo-4,5-dihydro-1H-1,2,4-triazol-3-yl)propyl)pyridin-2-yl)-2-methoxyphenyl)acetic acid]",2530
